Laboratory results from publication PMC4979471 (Cell Death Discovery, 2015).
Read-outs that look alike come from different tables or passages of the source.

Key:
Test in all cases: Kinase selectivity, P33-radiolabeled assay
Type in all cases: biochemical
Settings in all cases: 10 μM ATP
RSK1 = target: T1, RSK1 (Homo sapiens, UniProt Q15418)
T1 construct: purchased Reaction Biology Corp
How it was run: (§1)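 Duplicate single-concentration testing used 10 μM compound. The ATP concentration was also 10 μM.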

PLK2 = target: T2, PLK2 (Homo sapiens, UniProt Q9NYY3)
T2 construct: purchased Reaction Biology Corp
How it was run: as §1

CSK = target: T3, CSK (Homo sapiens, UniProt P41240)
T3 construct: purchased Reaction Biology Corp
How it was run: as §1

P38a/MAPK14 = target: T4, P38a/MAPK14 (Homo sapiens, UniProt Q16539)
T4 construct: purchased Reaction Biology Corp
How it was run: as §1

MLK3/MAP3K11 = target: T5, MLK3/MAP3K11 (Homo sapiens, UniProt Q16584)
T5 construct: purchased Reaction Biology Corp
How it was run: as §1

ALK = target: T6, ALK (Homo sapiens, UniProt Q9UM73)
T6 construct: purchased Reaction Biology Corp
How it was run: as §1

NEK11 = target: T7, NEK11 (Homo sapiens, UniProt Q8NG66)
T7 construct: purchased Reaction Biology Corp
T7 sequence (Q8NG66 1-645): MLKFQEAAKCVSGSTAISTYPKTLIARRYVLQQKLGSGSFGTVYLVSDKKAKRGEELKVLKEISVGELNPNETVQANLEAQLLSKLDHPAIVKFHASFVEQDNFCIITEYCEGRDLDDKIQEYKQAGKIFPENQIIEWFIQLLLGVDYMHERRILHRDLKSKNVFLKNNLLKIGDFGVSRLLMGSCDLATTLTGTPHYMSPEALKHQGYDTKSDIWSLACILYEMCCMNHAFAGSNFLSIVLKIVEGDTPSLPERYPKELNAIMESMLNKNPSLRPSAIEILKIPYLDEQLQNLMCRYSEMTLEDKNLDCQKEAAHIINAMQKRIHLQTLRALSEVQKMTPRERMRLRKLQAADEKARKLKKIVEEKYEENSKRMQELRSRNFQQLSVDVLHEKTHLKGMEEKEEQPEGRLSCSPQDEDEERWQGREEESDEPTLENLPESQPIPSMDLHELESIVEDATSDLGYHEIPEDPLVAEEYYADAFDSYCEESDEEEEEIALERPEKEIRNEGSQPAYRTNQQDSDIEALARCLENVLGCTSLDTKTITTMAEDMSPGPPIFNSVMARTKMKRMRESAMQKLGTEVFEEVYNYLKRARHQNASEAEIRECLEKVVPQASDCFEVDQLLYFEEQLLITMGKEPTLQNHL
How it was run: as §1

MARK4 = target: T8, MARK4 (Homo sapiens, UniProt Q96L34)
T8 construct: purchased Reaction Biology Corp
T8 sequence (Q96L34 1-752): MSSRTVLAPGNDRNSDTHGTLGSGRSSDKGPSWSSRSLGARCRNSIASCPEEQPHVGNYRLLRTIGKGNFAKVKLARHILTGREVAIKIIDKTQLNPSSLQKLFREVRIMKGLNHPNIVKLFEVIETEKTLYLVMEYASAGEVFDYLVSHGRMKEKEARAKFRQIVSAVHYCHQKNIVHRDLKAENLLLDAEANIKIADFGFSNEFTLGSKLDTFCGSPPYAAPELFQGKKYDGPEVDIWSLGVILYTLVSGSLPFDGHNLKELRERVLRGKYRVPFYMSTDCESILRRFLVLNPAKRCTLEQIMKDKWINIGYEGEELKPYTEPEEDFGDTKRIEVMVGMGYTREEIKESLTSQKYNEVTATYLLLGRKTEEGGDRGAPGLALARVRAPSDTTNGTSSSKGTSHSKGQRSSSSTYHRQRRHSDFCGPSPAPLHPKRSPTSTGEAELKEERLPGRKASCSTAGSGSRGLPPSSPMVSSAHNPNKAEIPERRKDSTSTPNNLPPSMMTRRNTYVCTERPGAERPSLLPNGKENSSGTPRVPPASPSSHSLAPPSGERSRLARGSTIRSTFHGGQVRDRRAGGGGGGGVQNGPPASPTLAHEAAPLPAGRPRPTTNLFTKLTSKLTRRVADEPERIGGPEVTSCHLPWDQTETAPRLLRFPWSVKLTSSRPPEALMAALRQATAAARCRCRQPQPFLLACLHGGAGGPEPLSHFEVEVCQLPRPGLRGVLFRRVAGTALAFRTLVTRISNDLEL
How it was run: as §1

TNK1 = target: T9, TNK1 (Homo sapiens, UniProt Q13470)
T9 construct: purchased Reaction Biology Corp
T9 sequence (Q13470 1-666): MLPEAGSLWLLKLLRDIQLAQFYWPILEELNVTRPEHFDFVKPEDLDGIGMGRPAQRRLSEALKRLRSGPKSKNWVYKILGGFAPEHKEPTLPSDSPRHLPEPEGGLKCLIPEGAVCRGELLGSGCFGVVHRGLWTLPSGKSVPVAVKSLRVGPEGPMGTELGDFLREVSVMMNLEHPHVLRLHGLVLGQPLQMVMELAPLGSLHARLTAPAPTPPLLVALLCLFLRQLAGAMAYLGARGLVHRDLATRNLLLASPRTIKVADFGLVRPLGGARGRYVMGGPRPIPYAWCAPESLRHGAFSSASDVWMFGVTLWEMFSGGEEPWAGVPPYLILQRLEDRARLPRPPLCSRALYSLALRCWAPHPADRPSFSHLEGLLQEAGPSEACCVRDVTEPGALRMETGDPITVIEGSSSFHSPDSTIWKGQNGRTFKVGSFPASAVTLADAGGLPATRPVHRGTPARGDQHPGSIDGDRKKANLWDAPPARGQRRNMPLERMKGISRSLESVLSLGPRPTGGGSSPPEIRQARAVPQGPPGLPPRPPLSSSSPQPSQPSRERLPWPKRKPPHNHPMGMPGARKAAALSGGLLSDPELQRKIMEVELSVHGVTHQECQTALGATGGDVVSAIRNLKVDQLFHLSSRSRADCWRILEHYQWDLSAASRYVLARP
How it was run: as §1

ALK1/ACVRL1 = target: T10, ALK1/ACVRL1 (Homo sapiens, UniProt P37023)
T10 construct: purchased Reaction Biology Corp
How it was run: as §1

[1] = read-out: % Enzyme Activity (relative to DMSO controls) AVG
[2] = read-out: % Enzyme Activity (relative to DMSO controls) Data 1
[3] = read-out: % Enzyme Activity (relative to DMSO controls) Data 2

T2 sequence (Q9NYY3 whole entry): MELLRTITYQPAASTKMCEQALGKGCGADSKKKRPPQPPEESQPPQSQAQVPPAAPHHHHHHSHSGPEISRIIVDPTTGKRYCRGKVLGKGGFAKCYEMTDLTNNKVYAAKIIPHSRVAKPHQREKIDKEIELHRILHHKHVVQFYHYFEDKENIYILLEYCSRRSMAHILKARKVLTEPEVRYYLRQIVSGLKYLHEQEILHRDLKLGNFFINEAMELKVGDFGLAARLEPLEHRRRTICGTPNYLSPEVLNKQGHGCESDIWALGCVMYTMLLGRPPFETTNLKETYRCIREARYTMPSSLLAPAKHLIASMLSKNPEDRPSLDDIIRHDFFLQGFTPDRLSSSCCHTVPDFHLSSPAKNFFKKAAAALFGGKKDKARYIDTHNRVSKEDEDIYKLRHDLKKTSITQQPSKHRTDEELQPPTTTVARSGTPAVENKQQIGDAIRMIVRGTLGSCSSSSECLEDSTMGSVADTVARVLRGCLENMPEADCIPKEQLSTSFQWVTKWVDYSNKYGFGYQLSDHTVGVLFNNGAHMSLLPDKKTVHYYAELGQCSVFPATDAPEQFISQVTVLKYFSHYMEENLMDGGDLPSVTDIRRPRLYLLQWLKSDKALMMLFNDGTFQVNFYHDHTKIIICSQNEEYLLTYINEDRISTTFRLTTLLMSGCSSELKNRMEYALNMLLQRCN
T4 sequence (Q16539 whole entry): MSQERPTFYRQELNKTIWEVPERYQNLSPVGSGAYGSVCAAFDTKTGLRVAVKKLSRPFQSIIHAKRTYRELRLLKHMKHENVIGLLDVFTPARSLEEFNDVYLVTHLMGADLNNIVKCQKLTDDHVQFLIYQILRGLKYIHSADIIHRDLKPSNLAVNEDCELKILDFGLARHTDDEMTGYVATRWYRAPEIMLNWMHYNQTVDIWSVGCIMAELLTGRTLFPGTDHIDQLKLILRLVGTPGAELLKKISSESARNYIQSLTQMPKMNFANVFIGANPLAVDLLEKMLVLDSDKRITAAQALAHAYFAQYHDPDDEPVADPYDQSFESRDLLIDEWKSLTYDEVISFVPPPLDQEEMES
T1 sequence (Q15418 whole entry): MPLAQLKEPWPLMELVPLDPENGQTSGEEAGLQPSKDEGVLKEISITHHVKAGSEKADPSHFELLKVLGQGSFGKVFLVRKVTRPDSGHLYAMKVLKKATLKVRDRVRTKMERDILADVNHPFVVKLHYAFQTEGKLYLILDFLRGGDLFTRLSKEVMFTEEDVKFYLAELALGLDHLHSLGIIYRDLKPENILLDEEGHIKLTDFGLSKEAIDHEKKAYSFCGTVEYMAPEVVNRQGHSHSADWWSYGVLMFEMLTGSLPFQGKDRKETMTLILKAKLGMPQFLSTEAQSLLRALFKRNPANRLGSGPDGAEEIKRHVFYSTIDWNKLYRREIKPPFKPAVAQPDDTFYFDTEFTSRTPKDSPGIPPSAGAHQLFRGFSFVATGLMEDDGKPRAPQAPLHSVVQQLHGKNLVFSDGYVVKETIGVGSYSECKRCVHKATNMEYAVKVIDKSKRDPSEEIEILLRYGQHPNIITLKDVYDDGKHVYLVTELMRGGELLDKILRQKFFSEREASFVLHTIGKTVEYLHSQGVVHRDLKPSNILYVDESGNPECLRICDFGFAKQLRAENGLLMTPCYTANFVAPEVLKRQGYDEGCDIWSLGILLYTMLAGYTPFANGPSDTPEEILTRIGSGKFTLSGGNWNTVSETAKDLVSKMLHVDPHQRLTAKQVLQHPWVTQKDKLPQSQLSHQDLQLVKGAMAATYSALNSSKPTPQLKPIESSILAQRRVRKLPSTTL
T6 sequence (Q9UM73 19-1620): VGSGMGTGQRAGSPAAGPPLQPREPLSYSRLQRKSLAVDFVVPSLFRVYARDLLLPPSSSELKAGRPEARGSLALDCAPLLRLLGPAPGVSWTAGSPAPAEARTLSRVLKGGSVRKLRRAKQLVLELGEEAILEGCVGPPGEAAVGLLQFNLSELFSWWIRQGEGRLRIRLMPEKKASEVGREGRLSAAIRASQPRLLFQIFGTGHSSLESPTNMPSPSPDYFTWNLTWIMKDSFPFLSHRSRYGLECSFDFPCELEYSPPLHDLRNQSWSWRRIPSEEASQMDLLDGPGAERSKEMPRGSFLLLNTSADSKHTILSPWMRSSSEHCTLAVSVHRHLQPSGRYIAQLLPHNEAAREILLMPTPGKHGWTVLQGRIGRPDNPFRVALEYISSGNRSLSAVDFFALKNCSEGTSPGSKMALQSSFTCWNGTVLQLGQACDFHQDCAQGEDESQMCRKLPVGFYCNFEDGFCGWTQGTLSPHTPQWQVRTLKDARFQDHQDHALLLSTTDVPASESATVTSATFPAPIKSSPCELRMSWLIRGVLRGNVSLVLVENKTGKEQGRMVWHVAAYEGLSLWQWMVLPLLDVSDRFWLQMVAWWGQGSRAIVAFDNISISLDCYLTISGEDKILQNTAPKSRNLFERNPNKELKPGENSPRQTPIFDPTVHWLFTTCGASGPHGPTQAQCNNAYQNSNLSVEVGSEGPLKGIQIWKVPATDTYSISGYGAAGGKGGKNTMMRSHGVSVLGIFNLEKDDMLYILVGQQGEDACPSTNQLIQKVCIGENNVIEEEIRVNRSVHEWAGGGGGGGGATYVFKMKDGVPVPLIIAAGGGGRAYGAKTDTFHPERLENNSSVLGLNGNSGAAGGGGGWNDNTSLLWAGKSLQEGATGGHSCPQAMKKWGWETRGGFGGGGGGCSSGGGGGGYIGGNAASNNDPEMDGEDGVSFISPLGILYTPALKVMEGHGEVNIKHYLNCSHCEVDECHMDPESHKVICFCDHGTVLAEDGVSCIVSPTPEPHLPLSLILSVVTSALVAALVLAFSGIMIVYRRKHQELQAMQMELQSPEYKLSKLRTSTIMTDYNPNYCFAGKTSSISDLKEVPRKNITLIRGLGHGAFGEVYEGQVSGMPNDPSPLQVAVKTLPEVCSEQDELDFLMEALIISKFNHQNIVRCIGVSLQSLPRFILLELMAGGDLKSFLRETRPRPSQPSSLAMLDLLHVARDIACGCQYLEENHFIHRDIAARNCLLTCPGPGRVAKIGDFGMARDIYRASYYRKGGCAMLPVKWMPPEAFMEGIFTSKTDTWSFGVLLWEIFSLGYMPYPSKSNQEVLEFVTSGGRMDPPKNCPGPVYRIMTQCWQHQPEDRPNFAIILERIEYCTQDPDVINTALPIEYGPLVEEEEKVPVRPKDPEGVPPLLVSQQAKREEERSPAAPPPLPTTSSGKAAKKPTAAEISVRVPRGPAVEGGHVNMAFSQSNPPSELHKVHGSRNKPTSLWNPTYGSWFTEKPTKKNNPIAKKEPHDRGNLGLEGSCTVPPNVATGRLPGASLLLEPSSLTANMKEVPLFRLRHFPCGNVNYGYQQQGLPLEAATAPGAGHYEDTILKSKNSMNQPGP
T3 sequence (P41240 whole entry): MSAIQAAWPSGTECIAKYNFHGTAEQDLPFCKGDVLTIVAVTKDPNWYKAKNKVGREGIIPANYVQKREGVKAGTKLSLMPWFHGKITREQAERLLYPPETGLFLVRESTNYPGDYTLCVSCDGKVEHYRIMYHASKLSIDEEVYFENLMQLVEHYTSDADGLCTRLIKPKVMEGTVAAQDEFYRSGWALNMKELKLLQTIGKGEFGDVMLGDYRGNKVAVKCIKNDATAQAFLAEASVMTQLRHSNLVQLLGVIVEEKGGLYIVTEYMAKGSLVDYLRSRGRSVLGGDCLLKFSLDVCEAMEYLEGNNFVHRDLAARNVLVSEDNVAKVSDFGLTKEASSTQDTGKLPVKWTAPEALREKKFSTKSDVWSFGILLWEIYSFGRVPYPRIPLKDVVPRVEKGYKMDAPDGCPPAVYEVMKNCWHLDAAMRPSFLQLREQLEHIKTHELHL
T5 sequence (Q16584 whole entry): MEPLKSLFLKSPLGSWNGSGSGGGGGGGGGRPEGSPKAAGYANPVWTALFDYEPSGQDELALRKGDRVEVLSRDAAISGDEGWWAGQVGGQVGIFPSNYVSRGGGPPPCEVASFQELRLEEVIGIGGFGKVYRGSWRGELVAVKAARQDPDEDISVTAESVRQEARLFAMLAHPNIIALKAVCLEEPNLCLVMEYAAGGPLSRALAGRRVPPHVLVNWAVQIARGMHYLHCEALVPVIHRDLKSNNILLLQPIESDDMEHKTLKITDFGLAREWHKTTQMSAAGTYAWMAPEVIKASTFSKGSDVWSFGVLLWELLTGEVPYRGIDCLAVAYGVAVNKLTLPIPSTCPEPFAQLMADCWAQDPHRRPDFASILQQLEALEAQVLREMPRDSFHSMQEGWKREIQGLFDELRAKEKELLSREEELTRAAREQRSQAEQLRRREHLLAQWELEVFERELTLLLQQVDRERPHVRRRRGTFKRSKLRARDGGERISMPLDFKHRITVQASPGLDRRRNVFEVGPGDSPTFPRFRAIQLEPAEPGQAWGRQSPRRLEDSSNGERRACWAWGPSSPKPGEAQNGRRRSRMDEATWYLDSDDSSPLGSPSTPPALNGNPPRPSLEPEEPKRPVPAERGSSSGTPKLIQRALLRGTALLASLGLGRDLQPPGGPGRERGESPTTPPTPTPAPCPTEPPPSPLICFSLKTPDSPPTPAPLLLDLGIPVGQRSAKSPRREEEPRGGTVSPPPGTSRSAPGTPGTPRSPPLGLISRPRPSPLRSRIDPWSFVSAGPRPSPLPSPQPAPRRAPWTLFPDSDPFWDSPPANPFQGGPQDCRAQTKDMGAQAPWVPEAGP

SMILES: CC(C)(C)C(=O)N1N=CC[C@H]1c1ccccc1 [GSK′963]
- remaining activity at 10 µM (RSK1; [1]): 126%
- remaining activity at 10 µM (RSK1; [2]): 123%
- remaining activity at 10 µM (RSK1; [3]): 128%
- remaining activity at 10 µM (PLK2; [1]): 110%
- remaining activity at 10 µM (PLK2; [2]): 108%
- remaining activity at 10 µM (PLK2; [3]): 111%
- remaining activity at 10 µM (CSK; [1]): 104%
- remaining activity at 10 µM (CSK; [2]): 104%
- remaining activity at 10 µM (CSK; [3]): 103%
- remaining activity at 10 µM (P38a/MAPK14; [1]): 94%
- remaining activity at 10 µM (P38a/MAPK14; [2]): 92.9%
- remaining activity at 10 µM (P38a/MAPK14; [3]): 95.2%
- remaining activity at 10 µM (MLK3/MAP3K11; [1]): 95%
- remaining activity at 10 µM (MLK3/MAP3K11; [2]): 96%
- remaining activity at 10 µM (MLK3/MAP3K11; [3]): 94%
- remaining activity at 10 µM (ALK; [1]): 101%
- remaining activity at 10 µM (ALK; [2]): 97.3%
- remaining activity at 10 µM (ALK; [3]): 105%
- remaining activity at 10 µM (NEK11; [1]): 79.1%
- remaining activity at 10 µM (NEK11; [2]): 77.3%
- remaining activity at 10 µM (NEK11; [3]): 80.9%
- remaining activity at 10 µM (MARK4; [1]): 107%
- remaining activity at 10 µM (MARK4; [2]): 105%
- remaining activity at 10 µM (MARK4; [3]): 109%
- remaining activity at 10 µM (TNK1; [1]): 98.8%
- remaining activity at 10 µM (TNK1; [2]): 100%
- remaining activity at 10 µM (TNK1; [3]): 97.2%
- remaining activity at 10 µM (ALK1/ACVRL1; [1]): 97.7%
- remaining activity at 10 µM (ALK1/ACVRL1; [2]): 104%
- remaining activity at 10 µM (ALK1/ACVRL1; [3]): 91.2%
